Assay results published in ChEMBL document CHEMBL1124768 (1990).

How the values were obtained:
Assay type in all cases: functional
[1] = test system: Rattus norvegicus; assay: Inhibition of carrageenan-induced 4 hours after 50 mg/kg i.p. administration in rats.; details: ip, route intraperitoneal
[2] = test system: Rattus norvegicus; assay: Inhibitory activity was measured on carrageenan-induced paw edema at a dose of 100 mg/Kg at 4 hours after intraperitoneal administration in rats; details: ip
[3] = test system: Rattus norvegicus; assay: Inhibitory activity was measured on carrageenan-induced paw edema at a dose of 25 mg/Kg at 4 hours after intraperitoneal administration in rats; details: ip

SMILES | inhibition in vivo at 50 mg/kg [1] | inhibition in vivo at 100 mg/kg [2] | inhibition in vivo at 25 mg/kg [3]
CC(C)=NOCCC(=O)O | 21% | 35% | 
O=C(O)CCO/N=C/c1ccccc1 | 66% |  | 15%
C/C(=N\OCCC(=O)O)C1CC1 | 16% |  | 
CC/C(=N\OCCC(=O)O)c1ccccc1 | 28% | 20% | 19%
CCC(/C=N/OCCC(=O)O)CC | 0% |  | 
O=C(O)CCO/N=C/C1CCCCC1 | 0% |  | 
CCCC(CCC)=NOCCC(=O)O | 0% |  | 
C/C(=N\OCCC(=O)O)C1CCCCC1 | 0% |  | 
CC(C)C(=NOCCC(=O)O)C(C)C | 12% |  | 
O=C(O)CCON=C1c2ccccc2-c2ccccc21 | 0% |  | 
O=C(O)CCON=C(c1ccccc1)c1ccccc1 | 11% |  | 
O=C(O)CCO/N=C1/CC2CCC1C2 (stereo not drawn) | 16% |  | 
C/C(=N\OCCC(=O)O)c1ccccc1 | 40% | 31% | 23%
O=C(O)CCO/N=C/c1cccs1 | 0% |  | 
O=C(O)CCO/N=C\c1ccccc1 | 0% |  | 
O=C(O)CCON=C1C2CC3CC(C2)CC1C3 | 19% |  | 
O=C(O)CCO/N=C/c1ccco1 | 15% |  | 
CC/C(=N\OCCC(=O)O)C(C)C | 35% | < 27% | 21%
O=C(O)Cc1ccccc1Nc1c(Cl)cccc1Cl [DICLOFENAC] | 67% |  | 31%
